The text below walks through data of patent US4013449A, “Method of controlling weed growth in a paddy field” (priority 1974, dated 1977).

Series [1] relates to broadleaf weeds. Nature of the series: Example 2: mechanical transplanting using young seedlings, poured into flooded water, herbicidal effect on broadleaf weeds. Also: key: 5: complete control; 4: excellent effect; 3: large effect; 2: fair effect; 1: small effect; 0: no effect. The series is classed as in vivo. The note with it: 20 days. As to the method:
(§1) The tests were conducted by using the compositions of Example 1 in the paddy field of Ishigakijima, Okinawa-Ken, Japan.
(§2) 1. Plot size: Two replications each 1 m^2 per division.
(§3) 2. Culturing method: Mechanical transplanting using young seedlings
(§4) 3. Rice variety: Nihonbare
(§5) 4. Transplanting: Apr. 8, 1974
(§6) 2.3 - 3 leaf stage of rice at the transplanting;
(§7) 5. Depth of water: 3 - 5 cm
(§8) A. first treatment: Apr. 19, 1974
(§9) (16 days after transplanting)
(§10) 2 - 2.5 leaf stage of barnyard grass
(§11) B. second treatment: Apr. 23, 1974
(§12) (20 days after transplanting)
(§13) 3 - 3.5 leaf stage of barnyard grass.
(§14) Each composition was diluted with 50 cc of water and the solution was poured in the rows by using a watering pot.
Monochoria vaginalis (Burm fil) Presel;
Rotala indica (Willd) Koehne;
Scirpus juncoides Roxb; and
(§15) After 20 days from the treatment (the first treatment and the second treatment), the herbicidal effects and the condition of the rice were observed.

The test system of series [2] is broadleaf weeds. In words: Example 1: usual transplanting culture, paddy field, poured into flooded water, herbicidal effect on broadleaf weeds. Also: key: 5: complete control; 4: excellent effect; 3: large effect; 2: fair effect; 1: small effect; 0: no effect. The format is in vivo. The note with it: 3 weeks.
Source text: (§16) DCPA and β-NAC were separately crushed into fine powders by a jetmizer. The crushed DCPA and β-NAC were mixed in ratios of 80 : 1; 40 : 1; 20 : 1 and 10 : 1 together with a dispersing agent (Sorpol 5039 manufactured by Toho Chemical Co. and Rapizol BB-74 manufactured by Nippon Fat & Oil Co.) to form a wettable powder. The compositions were applied under the following conditions in a paddy field of Ishigakijima, Okinawa-Ken, Japan.
(§17) 1. Plot size: Two replications, each 1 m^2 per division
(§18) 2. Culturing method: Usual transplanting
(§19) 3. Rice variety: Taichu 65
(§20) 5 - 6 leaf stage of rice plants at the transplanting;
(§21) a. Treating time Mar. 16, 1974 (17 days after transplanting)
as §10
(§22) Each composition was diluted with 50 cc of water and the solution was poured in the rows by using a watering pot
Monochoria vaginalis (Burm fil) Presl;
Dopatrium junceum (Roxb) Hamilt;
Rotala indica (Willd) koehne;
Eleocharis acicularis Roem et Schult;
(§23) After 3 weeks from the treatment, the herbicidal effect and the phytotoxicity were observed.

Series [3] is described as follows: Experiment 3: decomposition of DCPA in soil. The format is physicochemical. The note with it: Alluvium loam soil, DCPA 100 g/are; for inhibition of the decomposition of DCPA in soil: NAC 3.3 g/are. As for the experimental part: The method of this invention is treatment in flooded water. Accordingly, transfer of the active ingredients into the soil of the paddy field is unavoidable. The decompositions of the active ingredients in the paddy soil were measured.
Soil: Alluvium loam soil
The active ingredients were uniformly mixed in a 5 mm
Analysis: The concentrations of DCPA were
measured by gas chromatography in […]

The test system of series [4] is barnyard grass. Nature of the series: Example 2: mechanical transplanting using young seedlings, poured into flooded water, herbicidal effect on barnyard grass. As to Herbicidal Effect, BG: key: 5: complete control; 4: excellent effect; 3: large effect; 2: fair effect; 1: small effect; 0: no effect. The series is classed as in vivo, Echinochloa crusgalli. The note with it: for Herbicidal Effect, BG: 20 days. As for the experimental part: as §1, §2, §3, §4, §5, §6, §7, §8, §9, §10, §11, §12, §13, §14
(§24) Barnyard grass (Echinochloa crusgalli);
as §15

Series [5] deals with rice plant. Nature of the series: Reference Experiment 2: foliage treatment, phytotoxicity of rice plant. The format is in vivo. Particulars: DCPA 1000 ppm alone. From the text: In unglazed pots having diameters of 9 cm, diluvium clay loam was filled and rice seeds and barnyard grass seeds were sowed and grown. […] The phytotoxicity of rice and herbicidal effect on barnyard grass were observed 20 days from the treatment.

Series [6] has as its system barnyard grass. Nature of the series: Example 1: usual transplanting culture, paddy field, poured into flooded water, herbicidal effect on barnyard grass. As to Herbicidal effect, barnyard grass: key: 5: complete control; 4: excellent effect; 3: large effect; 2: fair effect; 1: small effect; 0: no effect. The note with it: for Herbicidal effect, barnyard grass: 3 weeks; for herbicidal effect to barnyard grass and broadleaf weeds: poured into flooded water. The format is in vivo, Echinochloa crusgalli.
Source text: as §16, §17, §18, §19, §20, §21, §10, §22, §24, §23

Series [7] deals with rice plant. Nature of the series: Example 1: usual transplanting culture, paddy field, phytotoxicity to rice plant. The format is in vivo, Taichu 65. The note with it: 3 weeks. Further details: key: X: killed; ++++: serious damage; +++: high damage; ++: middle damage; +: low damage; ±: quite low damage; -: no damage.
Source text: as §16, §17, §18, §19, §20, §21, §10, §22, §23

Series [8] has as its system larva of mosquito. Nature of the series: LD50 to larva of mosquito (Table 1). Particulars: read-out: LD50 to larva of mosquito.
The test system of series [9] is house fly. Nature of the series: LD50 to house fly (Table 1). The note with it: addition of piperinyl butoxide.
A short description of series [10]: Insecticidal effect. Particulars: in vivo.
The mark [11] stands for this setting: A: 2 - 2.5 leaf stage, DCPA 60 g/are, β-NAC none.
Where [12] appears, read: B: 3 - 3.5 leaf stage, DCPA 60 g/are, β-NAC none.
[13] abbreviates: A: 2 - 2.5 leaf stage, DCPA none, β-NAC 4.0 g/are.
Setting [14] is: B: 3 - 3.5 leaf stage, DCPA none, β-NAC 4.0 g/are.

“Also recorded” adds a separate entry of the source.

Consider `CCC(=O)Nc1ccc(Cl)c(Cl)c1` [DCPA, 3,4-dichloropropionanilide, reference compound], for which the “Herbicidal Effect, BLW” value in series [1] (setting [11]) and in [1] (setting [12]) was 0 each time. The “Herbicidal effect, broadleaf weeds” value in [2] (DCPA 60 g/are, β-NAC none) is recorded as 0. Moreover, the “minimum residues of DCPA in soil” value in series [3] (α-NAC or β-NAC 3.3 g/are where combined, gas chromatography) stood at 4 days. Also, the “Herbicidal Effect, BG” value in [4] (setting [11]) and in series [4] (setting [12]) was 0 in each case. Moreover, the “herbicidal effect” value in series [4] (DCPA 60 g/are, 2 - 2.5 and 3 - 3.5 leaf stage of barnyard grass) is given as “no herbicidal effect was found”. Further, in series [5], the “Phytotoxicity to rice plants” value is reported as “not found”. Further, in series [6] (DCPA 60 g/are, β-NAC none), the “Herbicidal effect, barnyard grass” value was found to be 0. Moreover, the “herbicidal effect to barnyard grass and broadleaf weeds” value in series [6] (DCPA 60 g/are) is recorded as “no herbicidal effect”. Besides, the “Phytotoxicity to rice plant” value in [7] (DCPA 60 g/are, β-NAC none) is listed as “-”.
As to `CNC(=O)Oc1ccc2ccccc2c1` [β-NAC, β-naphthyl-N-methyl carbamate], the “Herbicidal Effect, BLW” value in series [1] (setting [13]) and in series [1] (setting [14]) was 0 each time. Further, the LC50 in [8] is > 10 µg/mL. Also, the “Herbicidal effect, broadleaf weeds” value in [2] (DCPA none, β-NAC 4.0 g/are) turned out to be 0. For the same molecule, in [3], the “inhibition of the decomposition of DCPA in soil” value was “higher effect for inhibiting the decomposition of DCPA”. The “Herbicidal Effect, BG” value in series [4] (setting [13]) and in series [4] (setting [14]) was 0 throughout. In series [9], the “LD50 to house fly” value amounted to 12.5 µg/g. The insecticidal effect result in series [10] is “low insecticidal effect; also recorded: no insecticidal effect”. Besides, in [6] (DCPA none, β-NAC 4.0 g/are), the “Herbicidal effect, barnyard grass” value came to 0. Further, the “herbicidal effect to barnyard grass and broadleaf weeds” value in series [6] (β-NAC 4 g/are) is on record as “no herbicidal effect”. In series [7] (DCPA none, β-NAC 4.0 g/are), the “Phytotoxicity to rice plant” value is listed as “-”.
`CNC(=O)Oc1cccc2ccccc12` [α-NAC, α-naphthyl-N-methyl carbamate]: the “inhibition of the decomposition of DCPA in soil” value in series [3] is “inhibit the decomposition of DCPA”.
